Measurements: ChEMBL document CHEMBL1122447, “2-Acetylpyridine thiosemicarbazones. 5. 1-[1-(2-Pyridyl)ethyl]-3-thiosemicarbazides as potential antimalarial agents” (1983)

What was measured:
Plasmodium berghei [1] = assay: Increased mean survival time in drug-sensitive Plasmodium berghei infected mice (Mus musculus) at 40 mg/kg; cured 1 of 5; type: functional, organism-based; parameters: dose 40 mg/kg
Plasmodium berghei [2] = assay: Antimalarial activity against Plasmodium berghei infected mice (Mus musculus) at 320 mg/kg; toxic in 1 of 5; type: functional, organism-based; parameters: dose 320 mg/kg
Plasmodium berghei [3] = assay: Increased mean survival time in drug-sensitive Plasmodium berghei infected mice (Mus musculus) at 320 mg/kg; cured 2 of 5; type: functional, organism-based; parameters: dose 320 mg/kg
Plasmodium berghei [4] = assay: Increased mean survival time in drug-sensitive Plasmodium berghei infected mice (Mus musculus) at 20 mg/kg dose; type: functional
Plasmodium berghei [5] = assay: Increased mean survival time in drug-sensitive Plasmodium berghei infected mice (Mus musculus) at 80 mg/kg; cures 3 of 5; type: functional, organism-based; parameters: dose 80 mg/kg
Plasmodium berghei [6] = assay: Increased mean survival time in drug-sensitive Plasmodium berghei infected mice (Mus musculus) at 160 mg/kg; cured 5 of 5; type: functional
Plasmodium berghei [7] = assay: Antimalarial activity against Plasmodium berghei infected mice (Mus musculus) at 640 mg/kg; toxic in 5 of 5; type: functional, organism-based; parameters: dose 640 mg/kg

CC(N/N=C(\S)N1CCN(c2ccccn2)CC1)c1ccccn1 (configuration not stated)
Survival time (Plasmodium berghei [1]): Cured 1 of 5 mice
Survival time (Plasmodium berghei [2]): Toxic in 1 of 5 mice
Survival time (Plasmodium berghei [3]): Cured 2 of 5 mice
Survival time (Plasmodium berghei [4]): 0.4 days
Survival time (Plasmodium berghei [5]): Cured 3 of 5 mice
Survival time (Plasmodium berghei [6]): 5 days
Survival time (Plasmodium berghei [7]): Toxic in 5 of 5 mice
